Experimental findings from ChEMBL document CHEMBL1150977, “A quantitative analysis of kinase inhibitor selectivity” (Nat Biotechnol, 2008) are described below.

As a reminder, the Kd is the concentration at which binding is half-saturated.

Among the targets are Ephrin type-A receptor 5 (Homo sapiens, UniProt P54756); SRSF protein kinase 1 (Homo sapiens, UniProt Q96SB4); Ephrin type-A receptor 4 (Homo sapiens, UniProt P54764).
Test [1] concerns the target Ribosomal protein S6 kinase alpha-5 (Homo sapiens, UniProt O75582).
Test [2] addresses Serine/threonine-protein kinase SIK1 (Homo sapiens, UniProt P57059).
In test [3] the target is T1, cGMP-dependent protein kinase 1 (Homo sapiens, UniProt Q13976).
T1 sequence (Q13976 whole entry): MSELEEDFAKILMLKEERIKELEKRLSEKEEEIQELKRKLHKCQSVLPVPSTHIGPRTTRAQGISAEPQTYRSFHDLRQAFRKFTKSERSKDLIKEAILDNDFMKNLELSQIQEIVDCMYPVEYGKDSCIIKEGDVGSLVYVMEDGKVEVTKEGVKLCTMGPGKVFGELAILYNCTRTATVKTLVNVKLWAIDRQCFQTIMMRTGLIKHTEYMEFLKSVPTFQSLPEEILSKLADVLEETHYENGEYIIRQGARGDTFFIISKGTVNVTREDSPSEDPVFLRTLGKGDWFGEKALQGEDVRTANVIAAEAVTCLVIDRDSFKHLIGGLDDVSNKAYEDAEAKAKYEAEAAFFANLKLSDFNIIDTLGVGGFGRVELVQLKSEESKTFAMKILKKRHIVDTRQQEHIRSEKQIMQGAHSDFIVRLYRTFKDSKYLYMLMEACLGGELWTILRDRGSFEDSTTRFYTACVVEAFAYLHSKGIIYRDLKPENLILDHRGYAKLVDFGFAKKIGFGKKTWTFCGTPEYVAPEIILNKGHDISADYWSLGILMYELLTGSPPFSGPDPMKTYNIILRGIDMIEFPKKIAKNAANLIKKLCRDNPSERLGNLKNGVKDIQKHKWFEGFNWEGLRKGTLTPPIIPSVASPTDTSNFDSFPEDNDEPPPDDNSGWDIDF

The target of test [4] is Cyclin-dependent kinase 18 (Homo sapiens, UniProt Q07002).
Test [5] has as its target Serine/threonine-protein kinase PAK 2 (Homo sapiens, UniProt Q13177).
In test [6] the target is Protein-tyrosine kinase 6 (Homo sapiens, UniProt Q13882).
Test [7] addresses Calcium/calmodulin-dependent protein kinase type II subunit alpha (Homo sapiens, UniProt Q9UQM7).
The target of test [8] is Death-associated protein kinase 1 (Homo sapiens, UniProt P53355).
Test [9] deals with Serine/threonine-protein kinase MRCK alpha (Homo sapiens, UniProt Q5VT25).
For test [10], the target named is T2, Membrane-associated tyrosine- and threonine-specific cdc2-inhibitory kinase (Homo sapiens, UniProt Q99640).
T2 sequence (Q99640 whole entry): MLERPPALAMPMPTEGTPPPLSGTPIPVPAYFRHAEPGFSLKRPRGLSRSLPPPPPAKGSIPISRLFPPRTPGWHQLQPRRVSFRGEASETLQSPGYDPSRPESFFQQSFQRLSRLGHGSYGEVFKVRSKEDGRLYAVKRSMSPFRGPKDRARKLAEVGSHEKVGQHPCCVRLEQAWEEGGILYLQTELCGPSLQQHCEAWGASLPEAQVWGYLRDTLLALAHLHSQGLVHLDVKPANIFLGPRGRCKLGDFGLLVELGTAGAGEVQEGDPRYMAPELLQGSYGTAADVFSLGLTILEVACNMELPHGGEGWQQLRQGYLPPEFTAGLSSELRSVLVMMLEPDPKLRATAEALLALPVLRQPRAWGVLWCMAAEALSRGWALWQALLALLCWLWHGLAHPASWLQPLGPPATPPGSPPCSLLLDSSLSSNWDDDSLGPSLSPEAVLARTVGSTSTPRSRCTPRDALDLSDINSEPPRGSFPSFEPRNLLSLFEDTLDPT

For test [11], the target named is Protein-tyrosine kinase 2-beta (Homo sapiens, UniProt Q14289).
Test [12] concerns the target AP2-associated protein kinase 1 (Homo sapiens, UniProt Q2M2I8).
Test [13] addresses ALK tyrosine kinase receptor (Homo sapiens, UniProt Q9UM73).

Chain of Serine/threonine-protein kinase SIK1 (P57059 whole entry): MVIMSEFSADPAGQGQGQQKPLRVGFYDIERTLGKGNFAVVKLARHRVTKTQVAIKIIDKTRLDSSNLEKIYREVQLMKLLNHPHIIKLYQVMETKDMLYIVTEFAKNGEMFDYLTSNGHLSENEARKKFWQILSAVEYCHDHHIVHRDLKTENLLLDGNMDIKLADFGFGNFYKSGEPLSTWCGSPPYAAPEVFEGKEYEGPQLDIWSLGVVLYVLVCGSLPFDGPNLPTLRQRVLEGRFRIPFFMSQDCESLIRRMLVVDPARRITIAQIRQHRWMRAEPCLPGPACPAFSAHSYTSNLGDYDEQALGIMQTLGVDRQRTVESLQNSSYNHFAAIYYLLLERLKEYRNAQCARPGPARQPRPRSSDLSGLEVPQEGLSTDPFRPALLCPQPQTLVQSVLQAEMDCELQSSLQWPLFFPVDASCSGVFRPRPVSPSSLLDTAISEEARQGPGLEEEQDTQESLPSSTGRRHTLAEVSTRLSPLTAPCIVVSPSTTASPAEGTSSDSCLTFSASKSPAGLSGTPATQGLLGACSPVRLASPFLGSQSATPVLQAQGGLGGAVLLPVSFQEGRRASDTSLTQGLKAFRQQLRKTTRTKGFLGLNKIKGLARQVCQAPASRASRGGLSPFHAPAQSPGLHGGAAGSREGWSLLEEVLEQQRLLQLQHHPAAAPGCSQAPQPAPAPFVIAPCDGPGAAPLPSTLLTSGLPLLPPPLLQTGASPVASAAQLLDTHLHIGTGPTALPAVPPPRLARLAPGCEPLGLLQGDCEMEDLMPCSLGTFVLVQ
Chain of Calcium/calmodulin-dependent protein kinase type II subunit alpha (Q9UQM7 whole entry): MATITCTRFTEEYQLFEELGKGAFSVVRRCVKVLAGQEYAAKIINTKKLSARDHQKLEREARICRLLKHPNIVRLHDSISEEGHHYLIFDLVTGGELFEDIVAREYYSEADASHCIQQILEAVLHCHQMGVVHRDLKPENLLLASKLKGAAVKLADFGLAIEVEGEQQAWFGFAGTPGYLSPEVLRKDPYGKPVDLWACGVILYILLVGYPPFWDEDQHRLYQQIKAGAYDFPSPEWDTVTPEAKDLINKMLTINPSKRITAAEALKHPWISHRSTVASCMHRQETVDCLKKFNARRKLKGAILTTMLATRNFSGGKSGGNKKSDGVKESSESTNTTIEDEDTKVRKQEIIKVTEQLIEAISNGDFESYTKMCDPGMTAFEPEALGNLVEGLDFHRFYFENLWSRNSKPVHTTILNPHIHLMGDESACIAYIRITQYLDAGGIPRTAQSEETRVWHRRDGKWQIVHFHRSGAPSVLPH
Chain of Ephrin type-A receptor 5 (P54756 whole entry): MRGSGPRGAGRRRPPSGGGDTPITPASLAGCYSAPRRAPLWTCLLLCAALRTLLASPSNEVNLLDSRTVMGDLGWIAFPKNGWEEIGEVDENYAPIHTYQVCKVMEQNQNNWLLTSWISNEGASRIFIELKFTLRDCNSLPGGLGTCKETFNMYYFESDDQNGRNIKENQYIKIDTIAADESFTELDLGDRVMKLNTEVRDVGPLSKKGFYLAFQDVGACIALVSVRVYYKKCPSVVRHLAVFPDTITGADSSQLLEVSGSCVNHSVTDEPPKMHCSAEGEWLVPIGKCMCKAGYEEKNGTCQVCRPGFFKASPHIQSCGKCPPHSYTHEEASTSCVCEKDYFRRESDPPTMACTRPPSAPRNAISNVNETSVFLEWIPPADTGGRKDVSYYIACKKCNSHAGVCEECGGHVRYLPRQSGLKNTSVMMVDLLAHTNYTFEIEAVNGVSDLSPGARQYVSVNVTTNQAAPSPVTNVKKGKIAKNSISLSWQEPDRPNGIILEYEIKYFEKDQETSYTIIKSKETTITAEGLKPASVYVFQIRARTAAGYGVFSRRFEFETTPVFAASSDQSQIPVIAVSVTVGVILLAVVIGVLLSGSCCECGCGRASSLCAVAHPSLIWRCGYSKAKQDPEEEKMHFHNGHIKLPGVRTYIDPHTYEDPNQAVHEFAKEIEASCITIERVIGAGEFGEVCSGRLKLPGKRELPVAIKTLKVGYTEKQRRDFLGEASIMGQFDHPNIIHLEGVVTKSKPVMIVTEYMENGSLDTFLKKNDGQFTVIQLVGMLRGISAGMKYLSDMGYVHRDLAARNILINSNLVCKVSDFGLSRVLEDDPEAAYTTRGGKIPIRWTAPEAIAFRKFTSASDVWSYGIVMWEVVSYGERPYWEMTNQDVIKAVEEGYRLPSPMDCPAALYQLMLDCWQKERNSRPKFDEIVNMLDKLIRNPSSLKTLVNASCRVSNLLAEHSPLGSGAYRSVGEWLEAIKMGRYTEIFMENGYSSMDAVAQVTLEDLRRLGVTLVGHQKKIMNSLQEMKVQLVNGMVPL
Chain of Ribosomal protein S6 kinase alpha-5 (O75582 whole entry): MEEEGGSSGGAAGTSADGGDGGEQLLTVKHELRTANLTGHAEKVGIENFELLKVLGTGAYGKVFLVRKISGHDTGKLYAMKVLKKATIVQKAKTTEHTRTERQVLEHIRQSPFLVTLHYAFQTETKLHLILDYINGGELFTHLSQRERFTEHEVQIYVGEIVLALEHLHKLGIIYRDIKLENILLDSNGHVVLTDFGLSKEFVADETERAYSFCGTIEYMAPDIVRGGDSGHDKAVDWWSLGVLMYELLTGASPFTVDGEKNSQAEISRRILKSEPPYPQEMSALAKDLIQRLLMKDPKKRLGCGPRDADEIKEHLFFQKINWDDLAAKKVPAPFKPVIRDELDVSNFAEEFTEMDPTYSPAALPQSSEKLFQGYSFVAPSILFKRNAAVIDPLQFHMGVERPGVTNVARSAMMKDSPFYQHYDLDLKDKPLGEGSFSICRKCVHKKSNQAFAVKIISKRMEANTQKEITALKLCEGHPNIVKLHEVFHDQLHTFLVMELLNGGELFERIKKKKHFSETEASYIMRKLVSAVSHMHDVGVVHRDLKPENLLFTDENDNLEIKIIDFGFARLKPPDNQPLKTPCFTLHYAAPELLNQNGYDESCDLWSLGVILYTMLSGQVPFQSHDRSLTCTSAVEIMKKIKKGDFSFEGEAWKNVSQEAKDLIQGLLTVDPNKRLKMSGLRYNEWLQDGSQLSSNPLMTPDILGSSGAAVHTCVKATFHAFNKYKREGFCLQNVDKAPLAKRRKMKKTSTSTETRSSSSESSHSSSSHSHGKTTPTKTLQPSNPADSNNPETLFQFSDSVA
Chain of SRSF protein kinase 1 (Q96SB4 whole entry): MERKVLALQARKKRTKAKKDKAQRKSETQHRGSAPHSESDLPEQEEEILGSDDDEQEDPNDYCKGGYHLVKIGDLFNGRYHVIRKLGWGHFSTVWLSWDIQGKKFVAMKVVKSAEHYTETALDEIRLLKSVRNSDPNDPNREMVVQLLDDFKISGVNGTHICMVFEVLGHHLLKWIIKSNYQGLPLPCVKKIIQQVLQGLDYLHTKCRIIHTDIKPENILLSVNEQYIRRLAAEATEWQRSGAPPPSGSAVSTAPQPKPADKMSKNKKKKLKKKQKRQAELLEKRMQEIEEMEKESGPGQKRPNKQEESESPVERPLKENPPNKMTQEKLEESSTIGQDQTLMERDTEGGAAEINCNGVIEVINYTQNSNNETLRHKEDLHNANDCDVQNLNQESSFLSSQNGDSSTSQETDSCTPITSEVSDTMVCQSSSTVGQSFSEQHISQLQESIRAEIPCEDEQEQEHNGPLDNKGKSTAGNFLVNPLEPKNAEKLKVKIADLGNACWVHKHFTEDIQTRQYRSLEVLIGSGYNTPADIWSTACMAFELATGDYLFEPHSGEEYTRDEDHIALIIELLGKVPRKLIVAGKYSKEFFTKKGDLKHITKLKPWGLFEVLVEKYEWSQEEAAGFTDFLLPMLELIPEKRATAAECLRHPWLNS
Chain of Protein-tyrosine kinase 2-beta (Q14289 whole entry): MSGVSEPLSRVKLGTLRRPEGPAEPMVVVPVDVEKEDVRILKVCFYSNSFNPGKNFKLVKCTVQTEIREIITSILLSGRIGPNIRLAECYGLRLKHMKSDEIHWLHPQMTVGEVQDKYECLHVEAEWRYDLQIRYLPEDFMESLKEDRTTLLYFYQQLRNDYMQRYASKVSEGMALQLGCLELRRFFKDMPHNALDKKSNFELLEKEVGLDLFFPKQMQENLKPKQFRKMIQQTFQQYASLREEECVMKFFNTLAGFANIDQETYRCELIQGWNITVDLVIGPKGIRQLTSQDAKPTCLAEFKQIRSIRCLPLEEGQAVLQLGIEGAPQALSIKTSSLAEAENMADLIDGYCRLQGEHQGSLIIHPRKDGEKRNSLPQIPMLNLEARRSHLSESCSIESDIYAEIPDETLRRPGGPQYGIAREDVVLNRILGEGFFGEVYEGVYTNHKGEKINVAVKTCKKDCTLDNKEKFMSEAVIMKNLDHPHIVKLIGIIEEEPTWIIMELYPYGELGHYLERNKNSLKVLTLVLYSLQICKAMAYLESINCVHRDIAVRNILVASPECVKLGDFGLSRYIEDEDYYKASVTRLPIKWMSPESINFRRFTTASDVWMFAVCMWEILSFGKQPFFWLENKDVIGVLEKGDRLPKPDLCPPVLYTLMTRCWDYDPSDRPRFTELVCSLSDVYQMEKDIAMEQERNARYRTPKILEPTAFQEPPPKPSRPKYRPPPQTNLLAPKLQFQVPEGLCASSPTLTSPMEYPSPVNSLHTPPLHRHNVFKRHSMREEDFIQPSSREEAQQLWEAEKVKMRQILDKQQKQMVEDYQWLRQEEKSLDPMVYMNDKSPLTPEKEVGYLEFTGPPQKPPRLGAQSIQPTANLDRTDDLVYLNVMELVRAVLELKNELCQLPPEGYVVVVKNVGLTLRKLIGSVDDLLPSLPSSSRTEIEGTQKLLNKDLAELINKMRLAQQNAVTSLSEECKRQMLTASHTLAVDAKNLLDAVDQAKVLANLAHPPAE

For `COCC(=O)NC/C=C/c1ccc2ncnc(Nc3ccc(Oc4ccc(C)nc4)c(C)c3)c2c1` [CP-724714], the dissociation constant Kd (in [1]; in test [2]; in test [3]; on Ephrin type-A receptor 5; in test [4]; in [5]) was > 10 µM in each case. The Kd in test [6], in test [7], in test [8], in test [9], in test [10] and in test [11] was > 10 µM each time. In addition, the Kd (on SRSF protein kinase 1; in test [12]; in test [13]; on Ephrin type-A receptor 4) was > 10 µM each time.
With `Nc1nc(Nc2ccc(S(N)(=O)=O)cc2)nn1C(=O)c1c(F)cccc1F` [JNJ-7706621], the dissociation constant Kd (in test [1]; in [3]; at Ephrin type-A receptor 5; in test [5]; in test [6]; in [8]) was > 10 µM in each case. In addition, the Kd (in [9]; in test [10]; in [11]; at Ephrin type-A receptor 4) was > 10 µM each time.
Turning to `CCOc1cc2ncc(C#N)c(Nc3ccc(F)c(Cl)c3)c2cc1NC(=O)/C=C/CN(C)C` [PELITINIB], the Kd (in test [1]; in test [2]; in test [3]; on Ephrin type-A receptor 5; in [4]; in test [5]) was > 10 µM each time. The Kd is > 10 µM in test [6]; > 10 µM in test [7]; > 10 µM in test [8]; > 10 µM in test [9]; 2.9 µM in test [10]; > 10 µM in test [11]. For the same compound, the Kd on SRSF protein kinase 1 was > 10 µM; in [13] it was 7.1 µM; on Ephrin type-A receptor 4, > 10 µM.
In the case of `Oc1ccc(-c2nc(-c3ccncc3)c(-c3ccc(F)cc3)[nH]2)cc1` [SB-202190], the equilibrium dissociation constant (Kd) (in test [1]; in [2]; in test [3]; at Ephrin type-A receptor 5; in test [4]; in test [5]) was > 10 µM throughout. Besides, the Kd in [6] was 6.8 µM; in test [7] it was > 10 µM; in test [8] it was > 10 µM; in test [9] it was > 10 µM; in [10], > 10 µM; in test [11], > 10 µM. Moreover, the equilibrium dissociation constant (Kd) (on SRSF protein kinase 1; in [12]; in test [13]; on Ephrin type-A receptor 4) was > 10 µM in each case.
As to `NC(=O)c1ccc(-c2nc(-c3ccc4c(c3)OCO4)c(-c3ccccn3)[nH]2)cc1` [SB-431542], the Kd (in test [1]; in test [2]; in test [3]; at Ephrin type-A receptor 5; in test [4]; in [5]) was > 10 µM each time. For the same compound, the Kd in test [6], in [7], in [8], in test [9], in test [10] and in test [11] was > 10 µM each time. Moreover, the dissociation constant (Kd) (at SRSF protein kinase 1; in test [12]; in [13]; on Ephrin type-A receptor 4) was > 10 µM throughout.
